On the set-up of data set [1]: method as in data on file. The conditions noted are these: ref data on file; cited from earlier work.
Data set [2] concerns A375 (BRAF V600E) melanoma cell proliferation. The arrangement: method as in data on file. The conditions noted are these: fraction of encorafenib potency; ref data on file; cited from earlier work.
The nature of data set [3]: Metabolite profiles in plasma (UPLC, radioactivity detection, MS). The data set is classed as in vivo, human. The conditions noted are these: for Mean (range) Circulating Radioactivity in Plasma Based on AUC0-24: 100 mg oral [14C] encorafenib; for Mean (range) Circulating Radioactivity in Plasma Based on AUC0-24 (%): M12.8 value is sum of M12.8 and M13.2. How it is done:
To the thawed plasma samples (1.5 mL plasma/ time points) two volumes of ice‐cold acetonitrile:ethanol:acetic acid (90:10:0.1, v/v) were added, followed by vortex mixing (10 min) and sonication (10 min). After centrifugation, the supernatants (4.2 mL) were evaporated to near dryness under a gentle stream of nitrogen on a TurboVap LV (Zymark Corp.). The residues were reconstituted in 80 μL of methanol:water:acetic acid (50:50:0.1, v/v) and 45 μL were injected into the ultra‐performance liquid chromatography (UPLC) system with off‐line radioactivity detection.
Characterization and quantification of the metabolites of encorafenib in select human plasma and excreta samples were performed by the Department of DMPK (Drug Metabolism and Pharmacokinetics) at the Novartis Institutes for Biomedical Research (East Hanover, NJ, USA) using liquid chromatography (LC) coupled to radioactivity detectors and mass spectrometers (MS).
The analytical system consisted of a Waters ACQUITY UPLC system (Waters), equipped with a Phenomenex Luna PFP column (3 μm, 4.6 × 150 mm) (Phenomenex) and a guard column of the same phase, both maintained at a temperature of 30°C. The mobile phases consisted of 10 mM ammonium acetate containing 0.1% formic acid (v/v) (solvent A) and CH3CN (solvent B). The total run time was 80 min. A linear gradient elution program was used with a flow rate of 1 mL/min as described in Table 1.
The UPLC effluent was split 4:1, with […] of the total flow introduced to the mass spectrometer for mass spectral analysis and the remaining flow used for radioactivity detection.
For off‐line radioactivity detection, the eluant was collected into 96‐well Lumaplate (Packard Instrument Co) microplates using a Collect Pal fraction collector (Leap Technologies) with a collection time of 10 seconds per well. The LumaPlates were sealed after drying and counted for 10–50 min per well on a Packard Topcount microplate scintillation counter. The structural characterization of metabolites was carried out using the above UPLC profiling method coupled to a two‐channel Z‐spray (LockSprayTM) time‐of‐flight mass spectrometer (Synapt MS). Leucine enkephalin was used as the mass reference standard for exact mass measurements and was delivered via the second spray channel at a flow rate of 5 μL/minute. The mass spectrometer was operated at a resolution of ~10 000 m/ΔmFWHM with spectra being collected from 100 to 1000 amu. The ionization technique employed was positive electrospray. The sprayer voltage was kept at 3100 V and the sampling cone voltage was kept at a potential of 20 V. For the time‐of‐flight MS/MS experiments, trap energies of 25 to 45 eV and transfer energy of 15 eV were used with argon as the collision gas.
All radioactivity data were transferred to Laura software (version 4.2.2.24, Lab Logic Ltd, UK) to generate and integrate radio‐chromatograms. Radioactive peaks for quantitative analysis were manually selected from the plots. The radioactivity in the region encompassing the beginning and end of the peak was summed. All further calculations were based on radioactivity.
The percent of radioactivity (%RA) in a particular peak, Z, was calculated as follows in Equation (1): (1) %RAinZ=DPMin PeakZ/totalDPMinallintegrated peaksx100
The concentration or amount of each component was calculated as % RA (expressed as a fraction) multiplied by the total concentration of radioactivity in plasma, or the percent of dose in the excreta.

`CC(C)n1cc(-c2ccnc(N)n2)c(-c2cc(Cl)cc(NS(C)(=O)=O)c2F)n1` [M42.5A]: the “In vitro safety pharmacology result” value in data set [1] is reported as “no significant safety signal”. In addition, the “Potency relative to encorafenib against A375 cell proliferation” value in data set [2] was “approximately 1/30”. In data set [3], the “Mean (range) Circulating Radioactivity in Plasma Based on AUC0-24” value was 2430 (1740–3320) ngEq/mL*h and the “Mean (range) Circulating Radioactivity in Plasma Based on AUC0-24 (%)” value is reported as 15.5 (13.4–17.4) %.
On to `CC(O)CNc1nccc(-c2cn(C(C)C)nc2-c2cc(Cl)cc(NS(C)(=O)=O)c2F)n1` (stereo not drawn) [M44], for which, in data set [3], the “Mean (range) Circulating Radioactivity in Plasma Based on AUC0-24” value is recorded as 806 (525–1250) ngEq/mL*h and the “Mean (range) Circulating Radioactivity in Plasma Based on AUC0-24 (%)” value was 5.09 (4.02–6.36) %.

(Values after publication PMC10541456, “A phase I, single‐center, open‐label study to investigate the absorption, distribution, metabolism and excretion of encorafenib following a single oral dose of 100 mg [ ^14C] encorafenib in healthy male subjects” (Pharmacology Research & Perspectives, 2023).)
